Drawing on PubChem BioAssay AID306 (DTP/NCI, 2004), this text covers T/C for eleven molecules.

The test has as its system BDF1 mice, L1210 Methyl-GAG-resistant leukemia, survival T/C. As to the kind of experiment: NCI In Vivo Anticancer Drug Screen. Data for tumor model L1210 Leukemia resistant to Methyl-GAG; NSC 32946 (subcutaneous) in B6D2F1 (BDF1) mice. Conditions: endpoint: mean survival time, higher = longer survival. As to the method:
The antitumor activity of compounds was measured in mice bearing transplantable tumors. Survival or tumor size were measured and the results are expressed as the measurement made in the treated group (T) divided by the measurement made in the vehicle treated control group (C). The tumor model used in this assay is L1210 Leukemia resistant to Methyl-GAG; NSC 32946 (subcutaneous) in B6D2F1 (BDF1) mice

Setting [1] is: dose: 2.5 mg/kg/injection, schedule: Q01DX Z (ip), vehicle: carboxymethylcellulose (CMC).
Setting [2] is: dose: 5.0 mg/kg/injection, schedule: Q01DX Z (ip), vehicle: carboxymethylcellulose (CMC).
The mark [3] stands for this setting: dose: 62.5 mg/kg/injection, schedule: Q01DX Z (ip), vehicle: carboxymethylcellulose (CMC).
Where [4] appears, read: dose: 125.0 mg/kg/injection, schedule: Q01DX Z (ip), vehicle: carboxymethylcellulose (CMC).
The mark [5] stands for this setting: dose: 250.0 mg/kg/injection, schedule: Q01DX Z (ip), vehicle: carboxymethylcellulose (CMC).
[6] abbreviates: dose: 500.0 mg/kg/injection, schedule: Q01DX Z (ip), vehicle: carboxymethylcellulose (CMC).

“And” between values parts separate entries of the source, which are not always exact repeats. Equal entries are not always repeated. Toxic doses and inconclusive results are not listed. *1 amine or outer side, *2 acyl side, *3 side chain or, on linkers, in order; H or OH if unused. Where a SMILES comes first, the peptide text is derived from it. Bridges are numbered along the chain shown (N, C = ends). Roman numbers before positions name the chains, in order. [ ]: non-standard residue; d: D form. Actinocin(9to1) = Cc1c2oc3c(C)ccc(C(=O)[*:1])c3nc-2c(C(=O)[*:2])c(N)c1=O; aThr = C[C@H](O)[C@H](N)C(=O)O; NMeV = CN[C@H](C(=O)O)C(C)C; Sar = CNCC(=O)O

On to `CCN(CC)c1ccc2cc3ccc(=[N+](CC)CC)cc-3oc2c1`, for which the T/C runs as follows: (dose: 0.08 mg/kg/injection, schedule: Q01DX Z (ip), vehicle: carboxymethylcellulose (CMC)) 117 % of control; (dose: 0.16 mg/kg/injection, schedule: Q01DX Z (ip), vehicle: carboxymethylcellulose (CMC)) 95 % of control; (dose: 0.31 mg/kg/injection, schedule: Q01DX Z (ip), vehicle: carboxymethylcellulose (CMC)) 91 % of control; (dose: 0.32 mg/kg/injection, schedule: Q01DX Z (ip), vehicle: carboxymethylcellulose (CMC)) 103 % of control; (dose: 0.63 mg/kg/injection, schedule: Q01DX Z (ip), vehicle: carboxymethylcellulose (CMC)) 91 % of control; (dose: 1.25 mg/kg/injection, schedule: Q01DX Z (ip), vehicle: carboxymethylcellulose (CMC)) 87 % of control. The T/C runs as follows: under setting [1], 91 % of control; under setting [2], 95 % of control.
For the molecule `Cn1c(N)nc2nc[nH]c2c1=S`, the T/C (dose: 1.6 mg/kg/injection, schedule: Q01DX Z (ip), vehicle: carboxymethylcellulose (CMC)) is 98 % of control; the T/C (dose: 3.1 mg/kg/injection, schedule: Q01DX Z (ip), vehicle: carboxymethylcellulose (CMC)) was 100 % of control and 104 % of control; the T/C (dose: 6.25 mg/kg/injection, schedule: Q01DX Z (ip), vehicle: carboxymethylcellulose (CMC)) is 97 % of control and 102 % of control; the T/C (dose: 12.5 mg/kg/injection, schedule: Q01DX Z (ip), vehicle: carboxymethylcellulose (CMC)) is 93 % of control and 98 % of control and 102 % of control; the T/C (dose: 25.0 mg/kg/injection, schedule: Q01DX Z (ip), vehicle: carboxymethylcellulose (CMC)) was 102 % of control; the T/C (dose: 50.0 mg/kg/injection, schedule: Q01DX Z (ip), vehicle: carboxymethylcellulose (CMC)) is 100 % of control and 111 % of control. Besides, the T/C by setting is: (dose: 100.0 mg/kg/injection, schedule: Q01DX Z (ip), vehicle: carboxymethylcellulose (CMC)) 101 % of control; (dose: 200.0 mg/kg/injection, schedule: Q01DX Z (ip), vehicle: carboxymethylcellulose (CMC)) 97 % of control.
As for `CC1CCOS(=O)O1` (stereo not drawn), the T/C under setting [1] is 95 % of control; the T/C under setting [2] is 101 % of control; the T/C (dose: 10.0 mg/kg/injection, schedule: Q01DX Z (ip), vehicle: carboxymethylcellulose (CMC)) was 97 % of control; the T/C (dose: 20.0 mg/kg/injection, schedule: Q01DX Z (ip), vehicle: carboxymethylcellulose (CMC)) is 97 % of control; the T/C (dose: 40.0 mg/kg/injection, schedule: Q01DX Z (ip), vehicle: carboxymethylcellulose (CMC)) is 95 % of control; the T/C (dose: 80.0 mg/kg/injection, schedule: Q01DX Z (ip), vehicle: carboxymethylcellulose (CMC)) was 92 % of control.
Regarding `C[C@]12C=CC(=O)C=C1CC[C@@H]1[C@@H]2C(=O)C[C@@]2(C)[C@H]1CC[C@]2(O)C(=O)CO`, the T/C is 91 % of control and 115 % of control (dose: 25.0 mg/kg/injection, schedule: Q01DX Z (sc), vehicle: steriod suspending solution); 103 % of control (dose: 50.0 mg/kg/injection, schedule: Q01DX Z (sc), vehicle: steriod suspending solution); 150 % of control (dose: 100.0 mg/kg/injection, schedule: Q01DX Z (sc), vehicle: steriod suspending solution); 115 % of control (dose: 200.0 mg/kg/injection, schedule: Q01DX Z (sc), vehicle: steriod suspending solution); 112 % of control and 118 % of control (dose: 400.0 mg/kg/injection, schedule: Q01DX Z (sc), vehicle: steriod suspending solution).
In the case of `CN(C)c1nc(N(C)C)nc(N(C)C)n1`, the T/C runs as follows: under setting [3], 100 % of control; under setting [4], 95 % of control; under setting [5], 100 % of control; under setting [6], 100 % of control; (dose: 1000.0 mg/kg/injection, schedule: Q01DX Z (ip), vehicle: methylcellulose (MC)) 98 % of control.
In the case of `Cc1c2oc3c(C)ccc(C(=O)N[C@@H]4C(=O)N[C@H](C(C)C)C(=O)N5CCC[C@H]5C(=O)N(C)CC(=O)N(C)[C@@H](C(C)C)C(=O)O[C@H]4C)c3nc-2c(C(=O)N[C@@H]2C(=O)N[C@H](C(C)C)C(=O)N3CCC[C@H]3C(=O)N(C)CC(=O)N(C)[C@@H](C(C)C)C(=O)O[C@H]2C)c(N)c1=O` (I: [aThr][dV]P[Sar][NMeV] / II: [aThr][dV]P[Sar][NMeV]; ester I:1-I:C, II:1-II:C; linker I:N-II:N via Actinocin(9to1)), the T/C is, setting by setting: (dose: 0.8 micrograms/kg/injection, schedule: Q01DX Z (ip), vehicle: saline) 96 % of control; (dose: 6.4 micrograms/kg/injection, schedule: Q01DX Z (ip), vehicle: saline) 93 % of control; (dose: 25.6 micrograms/kg/injection, schedule: Q01DX Z (ip), vehicle: saline) 96 % of control; (dose: 51.2 micrograms/kg/injection, schedule: Q01DX Z (ip), vehicle: saline) 98 % of control; (dose: 102.0 micrograms/kg/injection, schedule: Q01DX Z (ip), vehicle: saline) 90 % of control.
In the case of `O=CCC(O)C(O)C(O)CO` (stereo not drawn), the T/C under setting [3] was 98 % of control; the T/C under setting [4] is 103 % of control; the T/C under setting [5] is 101 % of control; the T/C under setting [6] was 119 % of control; the T/C (dose: 1000.0 mg/kg/injection, schedule: Q01DX Z (ip), vehicle: carboxymethylcellulose (CMC)) is 108 % of control; the T/C (dose: 2000.0 mg/kg/injection, schedule: Q01DX Z (ip), vehicle: carboxymethylcellulose (CMC)) is 90 % of control.
Consider `CCN(CC)C(=S)S`, for which the T/C was 96 % of control (dose: 125.0 mg/kg/injection, schedule: Q01DX Z (ip), vehicle: other); 92 % of control (dose: 250.0 mg/kg/injection, schedule: Q01DX Z (ip), vehicle: other); 96 % of control (dose: 500.0 mg/kg/injection, schedule: Q01DX Z (ip), vehicle: other); 104 % of control and 114 % of control (dose: 1000.0 mg/kg/injection, schedule: Q01DX Z (ip), vehicle: other).
With `CCN(CC)CCNc1ccc(C)c2sc3ccccc3c(=O)c12`, the T/C runs as follows: (dose: 1.56 mg/kg/injection, schedule: Q01DX Z (ip), vehicle: methylcellulose (MC)) 97 % of control; (dose: 6.25 mg/kg/injection, schedule: Q01DX Z (ip), vehicle: methylcellulose (MC)) 102 % of control; (dose: 12.5 mg/kg/injection, schedule: Q01DX Z (ip), vehicle: methylcellulose (MC)) 104 % of control; (dose: 25.0 mg/kg/injection, schedule: Q01DX Z (ip), vehicle: methylcellulose (MC)) 103 % of control and 113 % of control; (dose: 50.0 mg/kg/injection, schedule: Q01DX Z (ip), vehicle: methylcellulose (MC)) 119 % of control; (dose: 100.0 mg/kg/injection, schedule: Q01DX Z (ip), vehicle: methylcellulose (MC)) 151 % of control.
Regarding `O=NN(CCCl)C(=O)NCCCl`, the T/C is 122 % of control (dose: 1.0 mg/kg/injection, schedule: Q01DX Z (ip), vehicle: saline); 155 % of control (dose: 2.0 mg/kg/injection, schedule: Q01DX Z (ip), vehicle: saline); 202 % of control (dose: 4.0 mg/kg/injection, schedule: Q01DX Z (ip), vehicle: saline); 172 % of control (dose: 8.0 mg/kg/injection, schedule: Q01DX Z (ip), vehicle: saline); 92 % of control (dose: 16.0 mg/kg/injection, schedule: Q01DX Z (ip), vehicle: saline); 92 % of control (dose: 32.0 mg/kg/injection, schedule: Q01DX Z (ip), vehicle: saline).
`C[C@H](N)C(=O)N[C@@H]1[C@H]2C(=C(O)C[C@@H](O)[C@@H]2O)C(=O)O[C@@H]1C`: the T/C is 96 % of control (dose: 31.25 mg/kg/injection, schedule: Q01DX Z (ip), vehicle: saline); 102 % of control (dose: 125.0 mg/kg/injection, schedule: Q01DX Z (ip), vehicle: saline); 116 % of control (dose: 250.0 mg/kg/injection, schedule: Q01DX Z (ip), vehicle: saline); 96 % of control (dose: 2000.0 mg/kg/injection, schedule: Q01DX Z (ip), vehicle: saline).
